Patent US7902185B2, “Treatment of neurodegenerative diseases using proteasome modulators” (ALS Therapy Development Foundation, Inc., priority 2002, dated 2011)
Like-named read-outs stand apart in the source and are kept apart here.

Columns and labels:
[1] = system: proteasomal chymotrypsin activity; settings: at 5 uM concentration; cited from earlier work
[2] = system: cell proliferation; settings: by arresting cells in the GI phase the cell cycle; cited from earlier work
[3] = target: T1, caspase 3 (Homo sapiens, UniProt P42574); settings: cited from earlier work
T1 sequence (P42574 29-277): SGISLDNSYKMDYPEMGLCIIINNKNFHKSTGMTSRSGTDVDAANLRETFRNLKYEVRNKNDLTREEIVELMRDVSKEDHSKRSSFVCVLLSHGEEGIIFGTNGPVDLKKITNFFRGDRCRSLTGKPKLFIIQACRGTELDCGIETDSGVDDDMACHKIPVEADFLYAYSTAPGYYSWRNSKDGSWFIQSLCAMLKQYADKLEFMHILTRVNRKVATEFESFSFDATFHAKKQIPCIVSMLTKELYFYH

[4] = system: antigen processing and MHC I expression; settings: cited from earlier work
[5] = system: experimental autoimmune encephalomyelitis (EAE); settings: previous animal efficacy studies, cited from earlier work
[6] = in vivo; cited from earlier work
[7] = target: LMP7 component of the immunoproteosome (Homo sapiens, UniProt P28062); settings: cited from earlier work
[8] = system: IκB degradation and NF-κB mediated signal transduction; settings: at high doses (approximately 100 μM); cited from earlier work
[9] = system: SOD1 G93A mouse model of ALS; assay: Survival in SOD1 G93A mouse model of ALS; settings: for Female (% effect on survival) / Female (Days) survival: females; for Combined (% effect on survival) / Combined (Days) survival: males+females; for Combined (Days) survival / Female (Days) survival / Male (Days) survival: mean; for Female (Days) survival / Male (Days) survival: treated; for Male (Days) survival / Male (% effect on survival): males;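 as to all read-outs here: heterozygous transgenic SOD1 G93A mice dosed from 60 days of age until death, checked daily for death, compared with vehicle-treated controls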
Experimental: Model Description: The SOD1 G93A (high copy) mouse model is a mouse that carries 25 copies of the human G93A SOD mutation and is driven by the endogenous promoter.
Murine ALS model: Heterozygous transgenic mice carrying the human SOD-1 (G93A) gene were obtained from Jackson Laboratory (Bar Harbor, Me., USA) and experiments were performed under IRB protocol at Massachusetts College of Pharmacy.
Control Drug and Pharmacological Agent Preparation and Delivery: The drugs were formulated in suitable vehicles and control groups were given the same vehicle as treatment. […] Mice were treated from 60 days of age until death and were monitored daily for weight, neurological score and death.
Statistical Analysis: Statistical analysis on the neurological score, body weight and survival was done by utilizing ANOVA, Kaplan Meier, t-test, Cox's proportional hazards regression model and mixed linear model methods. All statistical analysis was performed using standard procedures known in the art.

[10] = system: ALS patient; assay: Ritonavir treatment of an ALS patient; type: in vivo, human; settings: one patient
Source text: The patient was on ventilator and non-ambulatory. The patient was paralyzed below the waist except the neck region, and communicated with head movement using Morse code based computer keys. […] The biceps and forearms of the patient were paralyzed for several years.
After administering Ritonavir® for nine months, the patient underwent neurological examination.

[11] = system: SOD1 G93A mouse model of ALS; assay: Neurological score in SOD1 G93A mouse model of ALS; type: in vivo; settings: for Neurological score significance (Males & Females combined): p value, mixed piece wise linear analysis
Experimental: Neurological Scoring: From day 85 onward, neurological score was recorded on a 4-point scale: • 0=Normal reflex on the hind limbs (animal will splay its hind limbs when lifted by its tail) • 1=Abnormal reflex (Lack of splaying of hind limbs when animal is lifted by the tail). • 2=Abnormal reflex and visible evidence of paralysis • 3=Lack of reflex and total paralysis of hind limbs. • 4=Inability to right themselves when placed on the sides in 30 seconds or found dead. The animals are sacrificed at this stage if alive.

[12] = system: AIDS patients; settings: human, in vivo; cited from earlier work
[13] = Maximal tolerated dose in the mouse studies; type: in vivo; settings: dose of these studies is quite close to it
Experimental: The dose of Ritonavi® in these studies (50 mg/Kg) is quite close to its maximal tolerated dose.

[14] = system: patients with ALS; settings: Borras-Blasco et al. (1998); cited from earlier work
[15] = system: proteasome; settings: at very high concentrations; cited from earlier work
[16] = Combined Ritonavir studies (100% Litter matched), vs control
[17] = Combined Ritonavir studies (100% Litter matched)
[18] = study Ritonavir-1, 50 mg/Kg/day IP
[19] = study Ritonavir-2, 50 mg/Kg/day IP
[20] = study Ritonavir-3, 50 mg/Kg/day IP
[21] = after nine months of administration

In the case of `CC(C)c1nc(CN(C)C(=O)N[C@H](C(=O)N[C@@H](Cc2ccccc2)C[C@H](O)[C@H](Cc2ccccc2)NC(=O)OCc2cncs2)C(C)C)cs1` (relative stereo) [Ritonavir, 10-Hydroxy-2-methyl-5-(1-methylethyl)-4-thiazolyl]-3,6-dioxo-8,11-bis (phenylmethyl)-2,4,7,12-tetraazatridecan-13-oic acid, 5-thiazolylmethyl ester, [5S-(5R*,8R*,10R*,11R*)]], the “inhibition of proteasomal chymotrypsin activity” value [1] is listed as “inhibition”, the cell proliferation [2] is listed as “suppress” and the “activity of caspase 3” value [3] is listed as “inhibit”. For the same compound, the “antigen processing and MHC I expression” value [4] was “decreased”, the “effect in the EAE model” value [5] was “protective” and the “effect in the EAE model” value ([5]; listed as pharmacological agent) was “prevented the development”. For the same compound, the “plasma levels, female animals compared to males” value [6] was “higher plasma levels”, the “binding to the LMP7 component of the immunoproteosome” value [7] was “binds” and the “inhibition of IκB degradation and NF-κB mediated signal transduction” value [8] was “inhibit”. For the same compound, the “Female (% effect on survival)” value [9, 16] was −1%, the “Combined (% effect on survival)” value [9, 16] was 2% and the “Combined (Days) survival” value ([9]; Combined Ritonavir studies (100% Litter matched), treated N=48) was 141 days. For the same compound, the “Female (Days) survival” value [9, 17] was 138 days, the “Male (Days) survival” value [9, 17] was 144 days and the “Female (% effect on survival)” value ([9]; study Ritonavir-1, vs control) was “None”. For the same compound, the “Combined (% effect on survival)” value ([9]; study Ritonavir-1, (mean treated-mean control)/mean control*100) was 5%, the “Male (% effect on survival)” value ([9]; study Ritonavir-1, vs control) was 10% and the “Combined (Days) survival” value ([9]; study Ritonavir-1, treated N=20, 50 mg/Kg/day IP) was 145 days. For the same compound, the “Female (Days) survival” value [9, 18] was 141 days, the “Male (Days) survival” value [9, 18] was 149 days and the “Female (% effect on survival)” value ([9]; study Ritonavir-2, vs control) was 6%. The “Combined (% effect on survival)” value ([9]; study Ritonavir-2, vs control) was 7%, the “Male (% effect on survival)” value ([9]; study Ritonavir-2, vs control) was 8% and the “Combined (Days) survival” value ([9]; study Ritonavir-2, treated N=18, 50 mg/Kg/day IP) was 149 days. The “Female (Days) survival” value [9, 19] was 144 days, the “Male (Days) survival” value [9, 19] was 153 days and the “Female (% effect on survival)” value ([9]; study Ritonavir-3, vs control) was −5%. For the same compound, the “Combined (% effect on survival)” value ([9]; study Ritonavir-3, vs control) was 2%, the “Male (% effect on survival)” value ([9]; study Ritonavir-3, vs control) was 7% and the “Combined (Days) survival” value ([9]; study Ritonavir-3, treated N=18, 50 mg/Kg/day IP) was 137 days. The “Female (Days) survival” value [9, 20] was 134 days, the “Male (Days) survival” value [9, 20] was 139 days and the “survival, overall conclusion” value ([9]; three separate studies) was “prolongation”. For the same compound, the “activity compared with positive control riluzole” value ([9]; three studies, based on neurological score and survival data) was “more active”, the “therapeutic effects in an ALS patient” value ([10]; 400 mg/day for about nine months) was “ameliorating the effects of ALS, slowing progression of the disease, and improving survival” and the “time until beneficial therapeutic effects were experienced” value ([10]; 400 mg/day) was “after three weeks”. For the same compound, the “diaphragm strength (neurological examination)” value [10, 21] was “gained enough strength to dislodge a tracheostomy cuff when sneezing”, the pectoral muscle strength [10, 21] was “gained significant strength” and the “swallowing (neurological examination)” value [10, 21] was “able to swallow”. For the same compound, the “muscles that had been paralyzed for years” value ([10]; after treatment) was “again under conscious control and showed electrical nerve activity”, the “Neurological score significance (Males & Females combined)” value (from here on “Neurological score significance”) ([11]; study Ritonavir-1) was “p < 0.0001” and the “Neurological score significance” value ([11]; study Ritonavir-2) was “p < 0.0001”. For the same compound, the “Neurological score significance” value ([11]; study Ritonavir-3) was “p = 0.0007”, the “disease progression (neurological score), overall conclusion” value ([11]; three separate studies) was “reproducible slowing” and the “toleration in AIDS patients” value [12] was “good toleration”. For the same compound, the maximal tolerated dose [13] was roughly 50 mg/kg.

In the case of `Nc1nc2ccc(OC(F)(F)F)cc2s1` [Riluzole], the “muscular strength of ALS patients” value [14] is given as “does not appear to provide an improvement”.

For `CC(C)(C)NC(=O)[C@@H]1C[C@@H]2CCCC[C@@H]2CN1C[C@@H](O)[C@H](Cc1ccccc1)NC(=O)[C@H](CC(N)=O)NC(=O)c1ccc2ccccc2n1` [saquinavir], the “alteration of proteasome activity” value [15] is listed as “alters proteasome activity”.
